The test system of assay [1] is Proteus mirabilis. In words: Antimicrobial activity against PpmrI knockout mutant Proteus mirabilis dIp after 16 to 18 hrs by broth microdilution method. Type of assay: functional.
The test system of assay [2] is Proteus mirabilis. In words: Antimicrobial activity against wild type Proteus mirabilis N2 […] after 16 to 18 hrs by broth microdilution method. Type of assay: functional. On the technique in general: Dilution methods test growth across graded concentrations, often in twofold steps.
Assay [3] concerns Proteus mirabilis. In words: Antimicrobial activity against PpmrI knockout mutant Proteus mirabilis dIpc complemented with PPmrI gene after 16 to 18 hrs by broth microdilution method. It counts as functional.
For assay [4], the system named is Proteus mirabilis. The assay can be described thus: Antimicrobial activity against Proteus mirabilis I2 mutant after 16 to 18 hrs by broth microdilution method. It counts as functional, organism-based.

Converted amounts (≈) assume the structure as drawn.

The values that follow come from ChEMBL document CHEMBL1255413, “Proteus mirabilis pmrI, an RppA-regulated gene necessary for polymyxin B resistance, biofilm formation, and urothelial cell invasion” (2010).

Broadly, the MIC is the lowest concentration found to suppress growth. High values mean a need for much substance, low ones inhibition by little substance.

With `CC1(C)S[C@@H]2[C@H](NC(=O)[C@H](N)c3ccccc3)C(=O)N2[C@H]1C(=O)O` [AMPICILLIN], the MIC in the assay on Proteus mirabilis [1], in the assay on Proteus mirabilis [2] and against Proteus mirabilis [3] was 16 µg/mL (≈ 45.8 µM) each time.

For the molecule `C[C@@H](O)[C@H]1C(=O)N2C(C(=O)O)=C(SCCNC=N)C[C@H]12` [IMIPENEM ANHYDROUS], the MIC came out at 0.25 µg/mL (≈ 0.835 µM) with Proteus mirabilis [1], 2 µg/mL (≈ 6.68 µM) in the assay on Proteus mirabilis [2] and 2 µg/mL (≈ 6.68 µM) in the assay with Proteus mirabilis [3].

In the case of `CN(C)[C@@H]1C(O)=C(C(N)=O)C(=O)[C@@]2(O)C(O)=C3C(=O)c4c(O)cccc4[C@@](C)(O)[C@H]3C[C@@H]12` [TETRACYCLINE], the minimum inhibitory concentration (MIC) against Proteus mirabilis [1], in the assay on Proteus mirabilis [2] and against Proteus mirabilis [3] was 32 µg/mL (≈ 72 µM) in each case.

With GENTAMICIN, the MIC with Proteus mirabilis [1], with Proteus mirabilis [2] and against Proteus mirabilis [3] was 4 µg/mL throughout.

POLYMYXIN B: the minimum inhibitory concentration (MIC) against Proteus mirabilis [1] and against Proteus mirabilis [4] was 4 µg/mL each time.
